Data as given in ChEMBL document CHEMBL1201862, “PubChem BioAssay data set” (2004).
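Grown in 96-well plates, cells were treated for 48 hours with each compound at five concentrations. Insufficient inhibition: endpoint recorded as highest concentration tested. GI50: concentration for 50% inhibition of growth.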 Activity calls are given as the source filed them. Cut-off read from the data, not from the text of the source: active = GI50 up to about 1.1 µM and inactive = higher.

What was measured:
Test in all cases: NCI-60 cell line screen, 48 h
[1] = test system: SK-MEL-5
[2] = test system: MDA-MB-435
[3] = test system: OVCAR-5
[4] = test system: COLO 205
[5] = test system: IGROV-1
[6] = test system: SN12C
[7] = test system: OVCAR-4
[8] = test system: SK-OV-3
[9] = test system: T47D
[10] = test system: MDA-N
[11] = test system: SF-295
[12] = test system: SK-MEL-28
[13] = test system: Malme-3M
[14] = test system: MOLT-4
[15] = test system: KM12
[16] = test system: RXF 393
[17] = test system: NCI/ADR-RES
[18] = test system: OVCAR-3
[19] = test system: DU-145
[20] = test system: UO-31
[21] = test system: K562
[22] = test system: A498
[23] = test system: SNB-19
[24] = test system: MDA-MB-231
[25] = test system: CAKI-1
[26] = test system: HOP-62
[27] = test system: M14
[28] = test system: HT-29
[29] = test system: HCT-15
[30] = test system: HCT-116
[31] = test system: NCI-H226
[32] = test system: PC-3
[33] = test system: MCF7
[34] = test system: BT-549
[35] = test system: HCC 2998
[36] = test system: OVCAR-8
[37] = test system: U-251
[38] = test system: SNB-75
[39] = test system: SR
[40] = test system: SK-MEL-2
[41] = test system: UACC-62
[42] = test system: NCI-H460
[43] = test system: Hs-578T
[44] = test system: RPMI-8226
[45] = test system: NCI-H23
[46] = test system: NCI-H522
[47] = test system: CCRF-CEM
[48] = test system: HL-60
[49] = test system: SW-620
[50] = test system: HOP-92
[51] = test system: EKVX
[52] = test system: ACHN
[53] = test system: SF-539
[54] = test system: TK-10
[55] = test system: UACC-257
[56] = test system: SF-268
[57] = test system: 786-0
[58] = test system: A549
[59] = test system: LOX IMVI

SMILES: S=C1SC(=N\c2ccccc2)/C(=N/c2ccccc2)N1c1ccccc1
- GI50 [1]: 62.7 µM (inactive)
- GI50 [2]: > 100 µM (inactive)
- GI50 [3]: > 100 µM (inactive)
- GI50 [4]: > 100 µM (inactive)
- GI50 [5]: > 100 µM (inactive)
- GI50 [6]: > 100 µM (inactive)
- GI50 [7]: 8.53 µM (inactive)
- GI50 [8]: > 100 µM (inactive)
- GI50 [9]: > 100 µM (inactive)
- GI50 [10]: > 100 µM (inactive)
- GI50 [11]: 34.5 µM (inactive)
- GI50 [12]: > 100 µM (inactive)
- GI50 [13]: 45.9 µM (inactive)
- GI50 [14]: > 100 µM (inactive)
- GI50 [15]: > 100 µM (inactive)
- GI50 [16]: > 100 µM (inactive)
- GI50 [17]: > 100 µM (inactive)
- GI50 [18]: 34.4 µM (inactive)
- GI50 [19]: > 100 µM (inactive)
- GI50 [20]: > 100 µM (inactive)
- GI50 [21]: > 100 µM (inactive)
- GI50 [22]: > 100 µM (inactive)
- GI50 [23]: > 100 µM (inactive)
- GI50 [24]: > 100 µM (inactive)
- GI50 [25]: > 100 µM (inactive)
- GI50 [26]: 28 µM (inactive)
- GI50 [27]: > 100 µM (inactive)
- GI50 [28]: 87.7 µM (inactive)
- GI50 [29]: > 100 µM
- GI50 [30]: 83.9 µM (inactive)
- GI50 [31]: > 100 µM (inactive)
- GI50 [32]: > 100 µM (inactive)
- GI50 [33]: > 100 µM (inactive)
- GI50 [34]: > 100 µM (inactive)
- GI50 [35]: > 100 µM (inactive)
- GI50 [36]: 93.8 µM (inactive)
- GI50 [37]: 90.8 µM (inactive)
- GI50 [38]: 19 µM (inactive)
- GI50 [39]: > 100 µM (inactive)
- GI50 [40]: > 100 µM (inactive)
- GI50 [41]: 22.8 µM (inactive)
- GI50 [42]: > 100 µM (inactive)
- GI50 [43]: 27.9 µM (inactive)
- GI50 [44]: 31.3 µM (inactive)
- GI50 [45]: > 100 µM (inactive)
- GI50 [46]: > 100 µM (inactive)
- GI50 [47]: 18.1 µM (inactive)
- GI50 [48]: > 10 µM (inactive)

SMILES: COc1ccccc1/C=C/c1cnccn1
- GI50 [1]: > 10 µM (inactive)
- GI50 [2]: > 10 µM (inactive)
- GI50 [3]: > 10 µM (inactive)
- GI50 [4]: > 10 µM (inactive)
- GI50 [49]: > 10 µM (inactive)
- GI50 [5]: > 10 µM (inactive)
- GI50 [6]: > 10 µM (inactive)
- GI50 [7]: > 10 µM (inactive)
- GI50 [8]: > 10 µM (inactive)
- GI50 [9]: > 10 µM (inactive)
- GI50 [10]: > 10 µM (inactive)
- GI50 [11]: > 10 µM (inactive)
- GI50 [12]: > 10 µM (inactive)
- GI50 [13]: > 10 µM (inactive)
- GI50 [14]: > 10 µM (inactive)
- GI50 [50]: > 10 µM (inactive)
- GI50 [51]: > 10 µM (inactive)
- GI50 [15]: > 10 µM (inactive)
- GI50 [16]: > 10 µM (inactive)
- GI50 [17]: > 10 µM (inactive)
- GI50 [52]: > 10 µM (inactive)
- GI50 [53]: > 10 µM (inactive)
- GI50 [18]: > 10 µM (inactive)
- GI50 [54]: > 10 µM (inactive)
- GI50 [19]: > 10 µM (inactive)
- GI50 [20]: > 10 µM (inactive)
- GI50 [55]: > 10 µM (inactive)
- GI50 [21]: > 10 µM (inactive)
- GI50 [22]: > 10 µM (inactive)
- GI50 [23]: > 10 µM (inactive)
- GI50 [24]: > 10 µM (inactive)
- GI50 [25]: > 10 µM (inactive)
- GI50 [26]: > 10 µM (inactive)
- GI50 [27]: > 10 µM (inactive)
- GI50 [56]: > 10 µM (inactive)
- GI50 [28]: > 10 µM (inactive)
- GI50 [29]: > 10 µM
- GI50 [30]: > 10 µM (inactive)
- GI50 [31]: > 10 µM (inactive)
- GI50 [32]: > 10 µM (inactive)
- GI50 [33]: > 10 µM (inactive)
- GI50 [34]: > 10 µM (inactive)
- GI50 [35]: > 10 µM (inactive)
- GI50 [36]: > 10 µM (inactive)
- GI50 [37]: > 10 µM (inactive)
- GI50 [38]: > 10 µM (inactive)
- GI50 [57]: > 10 µM (inactive)
- GI50 [40]: > 10 µM (inactive)
- GI50 [58]: > 10 µM (inactive)
- GI50 [59]: > 10 µM (inactive)
- GI50 [41]: > 10 µM (inactive)
- GI50 [42]: > 10 µM (inactive)
- GI50 [43]: > 10 µM (inactive)
- GI50 [44]: > 10 µM (inactive)
- GI50 [45]: > 10 µM (inactive)
- GI50 [46]: > 10 µM (inactive)
- GI50 [47]: > 10 µM (inactive)
- GI50 [48]: > 10 µM (inactive)
